# Reference: patent publication US20050014849A1, “Antifungal phenylethylene” (priority 2001, published 2005)
# Experiments:
# C. albicans (ATCC 90028) = assay: Frequency of occurrence of spontaneous mutants; type: cell-based, Candida albicans; details: four times the broth macrodilution MIC
# Method: (§1) Determination of the frequency of occurrence of spontaneous mutants was performed as previously described. Overnight cultures of C neoformans (ATCC 90112), C. albicans (ATCC 90028) and Trichosporon inkin (ATCC 18020) were diluted to an OD530 nm=0.3. 0.1 ml of each preparation was spread onto SDA plates containing four or eight times the broth macrodilution MIC of TMPN. The starting inoculum for each organism was also diluted and plated onto drug-free SDA plates for determination of cfu/ml. After a 48 h incubation at the appropriate temperature (see Fungal Strains section above), the number of colonies on drug-supplemented SDA was counted. The frequency of occurrence of spontaneous mutants was calculated by dividing the number of colonies on drug-containing plates by the number of colonies in the inoculum. When no colonies were visualized on drug-containing plates, the calculation was (<) 1 colony divided by the number of colonies in the inoculum.
# bovine brain tubulin = test system: T1, bovine brain tubulin; assay: Colchicine binding assay; details: 10 min at 37° C.
# T1 construct: Electrophoretically homogeneous bovine brain tubulin [12]
# Method: Electrophoretically homogeneous bovine brain tubulin [12] was used in studies to evaluate the effects of TMPN on in vitro tubulin polymerization and the binding of […] (Dupont-NEN) to tubulin. These studies were performed as described previously. In the polymerization assay, varying drug concentrations were added to 1 mg/ml tubulin to determine the amount of drug that would inhibit the extent of the reaction by 50% (20 min incubation at 30° C.) (IC50 value). In the colchicine binding assay, the effect of varying drug concentrations on the binding of 2 μg/ml colchicine to 100 μg/ml tubulin was measured after 10 min at 37° C. (control reaction about 50% complete).
# [1] = test system: Flucytosine-resistant C. albicans ATCC 32354; assay: Broth macrodilution MIC/MFC; type: cell-based, Candida albicans
# Method: (§2) TMPN was screened against yeasts by the broth macrodilution assay according to the NCCLS [7]. Yeasts were suspended and diluted as recommended to yield final inocula ranging from 0.5-2.5×10^3 cfu/ml. Tests were performed in sterile 12 by 75 mm plastic tubes containing two-fold dilutions of TMPN in 0.165 M morpholinepropanesulfonic acid buffered RPMI 1640 medium (pH 7.0). One tube was again left drug free (but contained an equivalent volume of DMSO) for a turbidity control. Tubes were incubated without agitation at the appropriate temperature (see Fungal Strains section above). MICs were determined after 72 h for Cryptococcus and after 48 h for other yeast genera. The MIC was defined as the lowest concentration of TMPN that inhibited all visible growth of the test organism (optically clear).
# (§3) Minimum fungicidal concentrations (MFCs) were determined by subculturing 0.1 ml from each tube with no visible growth in the MIC broth macrodilution series onto the appropriate drug-free plates (see Fungal Strains section above).
# C. albicans ATCC 10231 = assay: Broth macrodilution MIC/MFC; type: cell-based, Candida albicans
# Method: as §2, §3
# [2] = test system: Ketoconazole-resistant C. albicans ATCC 64124; assay: Broth macrodilution MIC/MFC; type: cell-based, Candida albicans
# Method: as §2, §3
# C. albicans ATCC 60193 = assay: Broth macrodilution MIC/MFC; type: cell-based, Candida albicans
# Method: as §2, §3
# Prostate DU-145 = assay: Sulforhodamine B cancer cell growth inhibition; type: cell-based; details: Homo sapiens, 48 h, read-out: GI50 (inhibition of 50% of cell growth)
# Method: (§4) An investigation TMPN's in vitro antineoplastic activity was also conducted. This investigation included an analysis of both cell growth, and of the effects of TMPN upon tubulin. Inhibition of cancer cell growth was assessed using the Sulforhodamine B assay as previously described. Briefly, cells in 5% fetal calf serum/RPMI-1640 were inoculated into 96 well plates, incubated 24 h and 10-fold dilutions of TMPN added. After a 48 h incubation, plates were fixed with trichloroacetic acid, washed, stained with Sulforhodamine B and read with an automated microtiter plate reader.
# CNS SF-295 = assay: Sulforhodamine B cancer cell growth inhibition; type: cell-based; details: Homo sapiens, 48 h, read-out: GI50 (inhibition of 50% of cell growth)
# Method: as §4
# Colon KM20L2 = assay: Sulforhodamine B cancer cell growth inhibition; type: cell-based; details: Homo sapiens, KM-20L2, 48 h, read-out: GI50 (inhibition of 50% of cell growth)
# Method: as §4
# Ovarian OVCAR-3 = assay: Sulforhodamine B cancer cell growth inhibition; type: cell-based; details: Homo sapiens, 48 h, read-out: GI50 (inhibition of 50% of cell growth)
# Method: as §4
# Lung-NSC NCI-H460 = assay: Sulforhodamine B cancer cell growth inhibition; type: cell-based; details: Homo sapiens, 48 h, read-out: GI50 (inhibition of 50% of cell growth)
# Method: as §4
# Pancreas BXPC-3 = assay: Sulforhodamine B cancer cell growth inhibition; type: cell-based; details: Homo sapiens, 48 h, read-out: GI50 (inhibition of 50% of cell growth)
# Method: as §4
# [3] = test system: Amphotericin B-resistant C. lusitaniae ATCC 42720; assay: Broth macrodilution MIC/MFC; type: cell-based, Candida lusitaniae
# Method: as §2, §3
# fungal = assay: Frequency of fungal spontaneous mutations to resistance (summary); type: cell-based; details: summary statement
# Method: as §1
# C. glabrata ATCC 2001 = assay: Broth macrodilution MIC/MFC; type: cell-based, Candida glabrata
# Method: as §2, §3
# C. glabrata (8) = assay: Broth macrodilution MIC/MFC; type: cell-based, Candida glabrata
# Method: as §2, §3
# C. glabrata ATCC 90030 = assay: Broth macrodilution MIC/MFC; type: cell-based, Candida glabrata
# Method: as §2, §3
# C. laurentii ATCC 66036 = assay: Broth macrodilution MIC/MFC; type: cell-based, Cryptococcus laurentii
# Method: as §2, §3
# C. laurentii ATCC 34142 = assay: Broth macrodilution MIC/MFC; type: cell-based, Cryptococcus laurentii
# Method: as §2, §3
# C. laurentii ATCC 18803 = assay: Broth macrodilution MIC/MFC; type: cell-based, Cryptococcus laurentii
# Method: as §2, §3
# C. tropicalis (9) = assay: Broth macrodilution MIC/MFC; type: cell-based, Candida tropicalis
# Method: as §2, §3
# C. rugosa (7) = assay: Broth macrodilution MIC/MFC; type: cell-based, Candida rugosa
# Method: as §2, §3
smiles,measurement,setting,value
"COc1cc(C=C[N+](=O)[O-])cc(OC)c1OC [TMPN, 1-(3′,4′,5′-trimethoxyphenyl)-2-nitro-ethylene]",frequency of occurrence of single-step resistant mutants,C. albicans (ATCC 90028),≤ 10^−6
same,inhibition of [^3H]colchicine binding to tubulin,bovine brain tubulin; 5 μM (combretastatin A-4 1.6 μg/ml; TMPN 1.2 μg/ml),13±0.5%
same,inhibition of [^3H]colchicine binding to tubulin,bovine brain tubulin; 12 μg/ml (50 uM),69±0.5%
same,MFC Range,[1],16 µg/mL
same,MIC Range,[1],16 µg/mL
same,MFC Range,C. albicans ATCC 10231,8 µg/mL
same,MIC Range,C. albicans ATCC 10231,8 µg/mL
same,MFC Range,[2],32 µg/mL
same,MIC Range,[2],16 µg/mL
same,MFC Range,C. albicans ATCC 60193,16 µg/mL
same,MIC Range,C. albicans ATCC 60193,16 µg/mL
same,GI50,Prostate DU-145,1.1 µg/mL
same,GI50,CNS SF-295,2 µg/mL
same,GI50,Colon KM20L2,1.4 µg/mL
same,GI50,Ovarian OVCAR-3,1.8 µg/mL
same,GI50,Lung-NSC NCI-H460,1.4 µg/mL
same,GI50,Pancreas BXPC-3,1.6 µg/mL
same,MFC Range,[3],16 µg/mL
same,MIC Range,[3],16 µg/mL
same,frequency of fungal spontaneous mutations to resistance,fungal,< 10^−6
same,MFC Range,C. glabrata ATCC 2001,16 µg/mL
same,MIC Range,C. glabrata ATCC 2001,8 µg/mL
same,MIC Range,C. glabrata (8),8 to 32 µg/mL
same,MFC Range,C. glabrata ATCC 90030,16 µg/mL
same,MIC Range,C. glabrata ATCC 90030,4 µg/mL
same,MFC Range,C. laurentii ATCC 66036,32 µg/mL
same,MIC Range,C. laurentii ATCC 66036,16 µg/mL
same,MFC Range,C. laurentii ATCC 34142,32 µg/mL
same,MIC Range,C. laurentii ATCC 34142,32 µg/mL
same,MFC Range,C. laurentii ATCC 18803,32 µg/mL
same,MIC Range,C. laurentii ATCC 18803,16 µg/mL
same,MIC Range,C. tropicalis (9),32 to 64 µg/mL
same,MIC Range,C. rugosa (7),1 to 64 µg/mL
